The results in this text go back to patent US7179804B2, “Tachykinin receptor antagonists” (Eli Lilly and Company, priority 2002, dated 2007).

A word on the melting point: it is the temperature, or range, at which the solid turns liquid. The molecule `CC(C)(O)c1onc(-c2ccccc2Cl)c1C(=O)c1nnn(Cc2cc(F)cc(C(F)(F)F)c2)c1-c1cccnc1` [Example 211, [3-(2-chloro-phenyl)-5-(1-hydroxy-1-methyl-ethyl)-isoxazol-4-yl]-[1-(3-fluoro-5-trifluoromethyl-benzyl)-5-pyridin-3-yl-1H-[1,2,3]triazol-4-yl]-methanone] had a melting point of 180 °C.
Regarding `CC(C)(O)c1onc(-c2ccccc2Cl)c1C(=O)c1nnn(Cc2cc(C(F)(F)F)cc(C(F)(F)F)c2)c1N1CCOCC1` [Example 73], the melting point was 188 °C.
Molecule `CC(O)c1onc(-c2ccccc2Cl)c1C(=O)c1nnn(Cc2cc(C(F)(F)F)cc(C(F)(F)F)c2)c1N1CCOCC1` (centres unmarked) [Example 81, [1-(3,5-bis-trifluoromethyl-benzyl)-5-morpholin-4-yl-1H-[1,2,3]triazol-4-yl]-[3-(2-chloro-phenyl)-5-(1-hydroxy-ethyl)-isoxazol-4-yl]-methanone] had a melting point of 145 to 146 °C.
For `O=C(c1nnn(Cc2cc(C(F)(F)F)cc(C(F)(F)F)c2)c1-n1ccnc1)c1c(CO)noc1-c1ccccc1Cl` [Example 269, [1-(3,5-bistrifluoromethylbenzyl)-5-imidazol-1-yl-1H-[1,2,3]triazol-4-yl]-[5-(2-chlorophenyl)-3-hydroxymethyl-isoxazol-4-yl]-methanone] the value was 148.8 °C; for `CC(C)(O)c1onc(-c2ccccc2Cl)c1C(=O)c1nnn(Cc2cc(C(F)(F)F)cc(C(F)(F)F)c2)c1-c1cccnc1` [Example 79, [1-(3,5-bis-trifluoromethyl-benzyl)-5-pyridin-3-yl-1H-[1,2,3]triazol-4-yl]-[3-(2-chloro-phenyl)-5-(1-hydroxy-1-methyl-ethyl)-isoxazol-4-yl]-methanone], 105 °C.
